Measured values published in publication PMC8746705, “Comparison of Experimental Strategies to Study L-Type Amino Acid Transporter 1 (LAT1) Utilization by Ligands” (Molecules, 2021).

Columns and labels:
Transport Type 2 = experiment: Concentration-dependent cellular uptake into BV2 cells, Eadie–Hofstee analysis, Transport Type 2; format: cell-based, mouse; settings: 1–200 µM, 30 min, mean ± SD, n = 3
Protocol: For the concentration-dependent cellular uptake experiments, the BV2 cells on 24-well plates were incubated with studied compounds (1–200 μM) in pre-warmed HBSS buffer (250 μL) at 37 °C for 30 min. The experiment was then carried out as described for the time-dependent uptake above and the concentration of studied compounds in the cell lysate was analyzed by the LC-MS/MS methods described above and the results were normalized to the total protein concentration. The distinct transport mechanisms were separated from the Michaelis-Menten kinetics by using Eadie–Hofstee plot.
The studied compounds (1–15) were analyzed by using Agilent 1200 Series Rapid Resolution LC System together with an Agilent 6410 Triple Quadrupole Mass Spectrometer equipped with an electrospray ionization source (Agilent Technologies, Santa Clara, CA, USA). The chromatographic separations of analytes were achieved by using a reversed-phase Zobrax SB-C18 column (50 mm × 2.1 mm, 1.8 μm; Agilent Technologies, Santa Clara, CA, USA) by eluting the samples with 0.1% formic acid in water (A) and 0.1% formic in ACN (B). Labetalol and diclofenac were used as internal standards (ISTD) for the prodrugs and parent drugs, respectively. The transitions used for the quantification at the positive ion mode and chromatographic conditions of each compound and their parent drugs are listed in Table S1. The methods of compounds 1–11 have been reported earlier, while the methods of compounds 12–15 are reported herein for the first time.

LAT1 [1] = molecular target: LAT1 (Mus musculus, UniProt Q9Z127); experiment: Inhibition type of [14C]-L-Leu uptake (Hanes-Woolf plots) in BV2 cells; format: cell-based; settings: for Vmax of [14C]-L-Leu uptake: 0.010–0.20 µM [14C]-L-Leu in the presence of the compound at its IC50, mean ± SD, n = 3–4; for Vmax of [14C]-L-Leu uptake / Inhibition Type: BV2; for IC50: Table 2, compound concentration used in the inhibition type study, corresponding to IC50 of [14C]-L-Leu uptake; for Inhibition Type: of [14C]-L-Leu uptake, concluded from Km and Vmax
LAT1 (Mus musculus, UniProt Q9Z127), sequence (Q9Z127 whole entry): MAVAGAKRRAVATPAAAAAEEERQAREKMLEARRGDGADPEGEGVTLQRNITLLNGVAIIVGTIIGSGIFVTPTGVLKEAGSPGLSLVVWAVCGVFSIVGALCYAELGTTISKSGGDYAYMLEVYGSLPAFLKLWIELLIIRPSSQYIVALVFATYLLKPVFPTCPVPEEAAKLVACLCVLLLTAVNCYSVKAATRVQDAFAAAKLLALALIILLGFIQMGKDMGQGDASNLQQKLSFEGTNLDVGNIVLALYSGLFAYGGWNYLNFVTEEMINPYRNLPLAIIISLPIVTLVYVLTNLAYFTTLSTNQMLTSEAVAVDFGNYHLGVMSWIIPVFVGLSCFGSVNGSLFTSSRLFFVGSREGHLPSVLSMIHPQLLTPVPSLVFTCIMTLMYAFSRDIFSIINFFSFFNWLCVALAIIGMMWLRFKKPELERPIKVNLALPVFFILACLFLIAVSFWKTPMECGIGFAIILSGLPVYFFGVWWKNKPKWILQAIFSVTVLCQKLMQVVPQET
LAT1 (Mus musculus, UniProt Q9Z127), sequence (P10852 whole entry partner): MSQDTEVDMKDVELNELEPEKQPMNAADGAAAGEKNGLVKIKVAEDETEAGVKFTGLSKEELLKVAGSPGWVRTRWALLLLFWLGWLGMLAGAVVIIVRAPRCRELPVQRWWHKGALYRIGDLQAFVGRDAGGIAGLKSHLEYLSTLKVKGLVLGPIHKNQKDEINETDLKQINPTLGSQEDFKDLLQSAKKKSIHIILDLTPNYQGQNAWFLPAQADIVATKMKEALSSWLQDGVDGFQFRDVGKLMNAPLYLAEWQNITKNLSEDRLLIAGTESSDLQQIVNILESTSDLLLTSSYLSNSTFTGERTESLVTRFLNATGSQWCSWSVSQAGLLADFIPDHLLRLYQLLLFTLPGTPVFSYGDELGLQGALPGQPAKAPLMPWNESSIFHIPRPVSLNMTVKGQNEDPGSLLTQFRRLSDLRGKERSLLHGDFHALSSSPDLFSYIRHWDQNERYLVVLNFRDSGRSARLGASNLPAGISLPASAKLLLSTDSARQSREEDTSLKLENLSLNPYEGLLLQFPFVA
Outline: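 BV2 cells preincubated 10 min at 37 °C in Na+-free choline HBSS (pH 7.4), then exposed to 0.010–0.20 μM [14C]-L-leucine plus compound at IC50-guided concentration; uptake counted by liquid scintillation. Km and Vmax derived by linear regression of Hanes-Woolf plots ([S]/v vs substrate).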

LAT1 [2] = experiment: Quantitative expression of LAT1 on the BV2 plasma membrane (LC-MS proteomics); format: cell-based, mouse; settings: BV2 cells incubated 24 h; normalized to Na+/K+ATPase; compared to untreated control
Protocol: The protein expression levels of LAT1, in the plasma membrane fractions of BV2 cells were quantified using multiplexed MRM analysis according to the protocol described by Uchida et al.. First, the crude membrane fractions were isolated from three distinct sets of cell culture plates using Membrane Protein Extraction Kit (BioVision Incorporated, Milpitas, CA, USA) according to the manufacturer’s instructions. The protein content for each fraction was measured by Bio-Rad Protein Assay, based on the Bradford dye-binding method (EnVision, Perkin Elmer, Inc., Waltham, MA, USA). A total amount of 50 µg protein from each fraction was solubilized/denatured in 7 M guanidine hydrochloride, 0.5 M Tris-HCl and 10 mM EDTA-Na. The proteins were then reduced by dithiothreitol (1:50, w/w) and S-carboxymethylated by iodoacetamide (1:20, w/w). The alkylated proteins were precipitated by methanol/chloroform/water (4:1:3) and centrifuged at 18,000× g for 5 min at 4 °C. The pellet was resuspended in 6 M urea and mixed for 10 min at room temperature before the dilution with 0.1 M Tris-HCl (pH 8.5) to a final concentration of 1.2 M urea, and dissolved completely by intermittent sonication (Branson 3510, Danbury, CT, USA). The dissolved proteins were first digested with LysC (1/100, w/w) and 0.05% ProteaseMax (Promega Biotech AB, Nacka, Sweden) for 3 h at room temperature. Then, the samples were spiked with 10 µL (30 fmol) of the labelled peptides for absolute quantification (JPT Peptide Technologies GmbH, Berlin, Germany) (Table S2). The samples were incubated with (1/100, w/w) TPCK-Trypsin (Promega Biotech AB, Nacka, Sweden) for 18 h at 37 °C. The tryptic digestion was then quenched by adding 40 µL of 5% formic acid. The samples were then centrifuged at 18,000× g for 5 min at 4 °C, and the supernatants were transferred to vials for analysis.
The digested peptides were analyzed using an ultra-performance liquid chromatography system coupled with a triple quadrupole mass spectrometer with a heated electrospray ionization source in the positive mode (UPLC 1290 and MSD 6495, Agilent Technologies, Santa Clara, CA, USA). A total amount of 20 µL of the digested peptides (10 µg) was separated using AdvanceBio Peptide Map 2.1 × 250 mm, 2.7 μm column (Agilent Technologies, Santa Clara, CA, USA) and LC eluents of 0.1% formic acid in water (A) and acetonitrile (B). The peptides were eluted following a constant flow rate of 0.3 mL/min and a gradient of 2–7% B for 2 min, followed by 7–30% B for 48 min, 30–45% B for 3 min, and 45–80% B for 2.5 min before re-equilibrating the column again for 4.5 min. LAT1 was quantified based on the ratio between the light and heavy standard peptides, as described previously (Table S2). Data was acquired using Agilent MassHunter Workstation Acquisition (Agilent Technologies, Data Acquisition for Triple Quadrupole, version B.03.01) and processed by using Skyline software (version 20.1). The results were normalized to a housekeeping protein Na+/K+ATPase and expressed as fmol/µg of the total amount of protein in the samples.

| SMILES | Km (Transport Type 2) | Transport Type 2 Vmax (Transport Type 2) | Vmax of [14C]-L-Leu uptake (LAT1 [1]) | IC50 (LAT1 [1]) | Inhibition Type (LAT1 [1]) | LAT1 expression on the plasma membrane (LAT1 [2]) |
| --- | --- | --- | --- | --- | --- | --- |
| NC(Cc1cccc(C(=O)Oc2ccc(-c3ccc(-c4ccc5c(c4)COC5=O)s3)cc2)c1)C(=O)O (stereo not shown) [Compound 1] | 347 ± 26 µM | 5067 ± 327 pmol/mg/min | 1.792 ± 0.106 nmol/min/mg | 7 µM | Mixed type | – |
| C[C@H](C(=O)Nc1cccc(C[C@H](N)C(=O)O)c1)c1cccc(C(=O)c2ccccc2)c1 [Compound 2] | 199 ± 50 µM | 0.88 ± 0.16 pmol/mg/min | 2.759 ± 0.066 nmol/min/mg | 3 µM | Mixed type | downregulated LAT1 expression |
| C[C@H](C(=O)Oc1cccc(C[C@H](N)C(=O)O)c1)c1cccc(C(=O)c2ccccc2)c1 [Compound 4] | 159 ± 45 µM | 231 ± 40 pmol/mg/min | 1.599 ± 0.170 nmol/min/mg | 15 µM | Non-competitive | – |
| COc1cc(C=CC(=O)NCc2cccc(CC(N)C(=O)O)c2)ccc1O (stereo not shown) [Compound 5] | 77 ± 13 µM | 0.27 ± 0.02 pmol/mg/min | 1.910 ± 0.057 nmol/min/mg | – | Un-competitive | downregulated LAT1 expression |
| COc1cc(/C=C/C(=O)Oc2cccc(C[C@H](N)C(=O)O)c2)ccc1O [Compound 7] | 62 ± 14 µM | 0.21 ± 0.02 pmol/mg/min | 2.780 ± 0.126 nmol/min/mg | 38 µM | Mixed type | – |
| N[C@@H](Cc1cccc(NC(=O)c2ccccc2O)c1)C(=O)O [Compound 8] | 41 ± 5 µM | 185 ± 10 pmol/mg/min | 1.644 ± 0.073 nmol/min/mg | 19 µM | Un-competitive | did not have any effect on LAT1 expression |
| C[C@H](C(=O)Nc1cccc(C[C@H](N)C(=O)O)c1)c1ccc(-c2ccccc2)c(F)c1 [Compound 9] | – | – | 2.422 ± 0.061 nmol/min/mg | 6 µM | Non-competitive | did not have any effect on LAT1 expression |
| C[C@H](C(=O)Oc1cccc(C[C@H](N)C(=O)O)c1)c1ccc(-c2ccccc2)c(F)c1 [Compound 12] | – | – | 1.513 ± 0.218 nmol/min/mg | 4 µM | Mixed type | did not have any effect on LAT1 expression |
| COc1ccc2cc([C@H](C)C(=O)Oc3cccc(C[C@H](N)C(=O)O)c3)ccc2c1 [Compound 15] | – | – | 1.448 ± 0.099 nmol/min/mg | 10 µM | Non-competitive | – |
